Reference: patent publication US10759796B2, “CXCR4 inhibitors and uses thereof” (X4 Pharmaceuticals, Inc., priority 2016, dated 2020)
Like-named read-outs stand apart in the source and are kept apart here.

Experiments:
[1] = MTD and pharmacokinetics and brain penetration after PO administration; assay type: in vivo, Male C57BL/6 Mice; details: male; for Kp / Kp uu: Mouse; for AUC(0-t): C57BL/6
Description: Example 30: MTD and Pharmacokinetics and Brain Penetration Experiment to Determine Brain and Plasma Concentration of Compounds after PO Administration to Male C57BL/6 Mice
The study was designed with 2 groups (18 animals and 24 animals) consists of administrating the drug [PO-50, 100, 150, 225, 300 mg/kg via oral gavage] and collecting samples at terminal bleeding for plasma, brain and CSF at 0.25, 0.5, 1, 4, 8, and 24 hr. All PO dosing solutions were prepared in 50 mM citrate buffer (pH 4.0).
The blood collection was performed as follows: the animal was restrained manually at the designated time points, approximately 500 μL of blood sample was collected via cardiac puncture vein into EDTA-2K tubes. The whole blood needed to be divided into two parts; one part was placed in the tube containing EDTA-2K for plasma generation and the other was used for the hematology assay, respectively. The blood samples for plasma generation were maintained in wet ice first and centrifuged to obtain plasma (2000 g, 4° C., 5 min) within 15 minutes post sampling. The brain collection was performed as follows: a mid-line incision was made in the animal's scalp and the skin was retracted. Using small bone cutters and rongeurs, the skull overlying the brain was removed. The brain was removed using a spatula and rinsed with cold saline. The brain was placed in screw-top tubes, and then stored at −70° C. until analysis. The CSF collection was performed as follows: a mid line incision was made on the neck. The muscle under the skin was cut to expose the cisterna magna. The cisterna magna was penetrated with the sharp end of one capillary (Burn one end of capillary to make it sharp). The CSF was sucked spontaneously into the capillary.
Plasma Sample Preparation:
An aliquot of 30 μL sample was added with 100 μL MeCN containing 100 ng/mL IS (Dexamethasone). The mixture was vortexed for 10 min and centrifuged at 5800 rpm for 10 min. An aliquot of 40 μL supernatant was added to 40 μL H2O and the mixture was vortexed for 5 min. An aliquot of 2 μL supernatant was injected for LC-MS/MS analysis.
Brain Sample Preparation:
An aliquot of 30 μL brain homogenate (brain:PBS=1:3, w/v) sample was added to 100 μL MeCN containing 100 ng/mL IS (Dexamethasone). The mixture was vortexed for 10 min and centrifuged at 5800 rpm for 10 min. An aliquot of 40 μL supernatant was added to 40 μL H2O and the mixture was vortexed for 5 min. An aliquot of 2 μL supernatant was injected for LC-MS/MS analysis.
An aliquot of 3 μL sample was added to a mixture of 6 CSF, 9 μL MeOH/H2O (1/1), 40 μL MeCN containing 200 ng/mL IS (Dexamethasone), and 116 μL H2O. The mixture was vortexed for 5 min. An aliquot of 4 μL was injected for LC-MS/MS analysis.
(§1) The sample analysis was performed on UPLC-MS/MS-02 (Triple Quad 4000) under the following conditions: positive ion, ESI, MRM detection using dexamethasone as internal standard. HPLC conditions: mobile phase A: H2O-0.1% formic acid, mobile phase B: MeCN-0.1% formic acid on: ACQUITY UPLC HSS T3 (2.1×50 mm, 1.8 μm) at 60° C.

[2] = Pharmacokinetics after intravenous or oral administration to dogs; assay type: in vivo; details: male, beagle, plasma, dog
Description: Example 32: Pharmacokinetics of Compounds After Intravenous or Oral Administration to Male Beagle Dogs
The study design (9 animals, fasted overnight and fed at 4 h post dosing) consists of administrating the drug [IV: 1 mg/kg via cephalic vein injection], [PO: 3 mg/kg and 10 mg/kg via oral gavage] and collecting samples at serial bleeding for plasma at 0.03, 0.08, 0.25, 0.5, 1, 2, 4, 8, 24, 48 and 72 hr. The IV and PO dosing solutions were prepared in 50 mM citrate buffer (pH 4.0) at 0.5 mg/mL, 1.5 mg/mL and 5 mg/mL, respectively. The blood collection was performed as follows: the animals were restrained manually, and approx. 0.5 mL blood/time point was collected from the cephalic vein into pre-cooled K2EDTA tubes. Blood samples were put on wet ice and centrifuged at 4° C. to obtain plasma within 15 minutes of sample collection. All samples were stored at approximately −70° C. until analysis.
Plasma Samples Preparation:
An aliquot of 30 μL sample was added to 100 MeCN containing 200 ng/mL IS (Dexamethasone). The mixture was vortexed for 10 min and centrifuged at 5,800 rpm for 10 min. An aliquot of 30 μL supernatant was added to 60 μL H2O and the mixture was vortexed for 5 min. An aliquot of 4 μL supernatant was injected for LC-MS/MS analysis.
as §1, with “performed using” for “performed on”, “H2O-0.1% FA,” for “H2O-0.1% formic acid,”, “B: ACN-0.1% FA on” for “B: MeCN-0.1% formic acid on:”, “μm) column” for “μm)”

[3] = C57BL/6, brain and plasma, single administration, D1-50 mg/kg PO
[4] = C57BL/6, brain, multiple administration, D5-300 mg/kg PO

Which Kp [1, 3] does the source give for `CN1CCN(c2cccc3nc([C@H]4CCC[C@@H](c5ncccc5Cl)N4)cn23)CC1` (single isomer, unassigned) [Compound I-188] here?
The Kp was 2.49.

What about the Kp uu [1, 3] of the same compound?
The Kp uu was 0.94.

And the Kp [1, 4]?
The Kp was 5.61.

What about the Kp uu [1, 4] of the same compound?
The Kp uu was 2.12.

And the AUC(0-t) ([1]; Mouse brain, multiple administration, D5-300 mg/kg PO, read-out: AUClast (b))?
Its AUC(0-t) is 430 µg·h/mL.

And the AUC(0-t) ([1]; Mouse brain, single administration, D1-50 mg/kg PO, read-out: AUClast (b))?
Its AUC(0-t) is 58.6 µg·h/mL.

And the AUC(0-t) ([1]; Mouse plasma, multiple administration, D5-300 mg/kg PO, read-out: AUClast (p))?
Its AUC(0-t) is 76.6 µg·h/mL.

What about the AUC(0-t) ([1]; Mouse plasma, single administration, D1-50 mg/kg PO, read-out: AUClast (p)) of the same compound?
The AUC(0-t) was 23.5 µg·h/mL.

What about the clearance ([2]; IV: 1 mg/kg) of the same compound?
The clearance was 1.19 L/h/kg.

What about the half-life ([2]; IV: 1 mg/kg) of the same compound?
The half-life was 27.3 h.

What about the Vd ([2]; IV: 1 mg/kg, read-out: Vss) of the same compound?
The Vd was 39 L/kg.

And the Cmax ([2]; PO: 3 mg/kg)?
Its Cmax is 0.0461 µg/mL.

What about the bioavailability ([2]; PO: 3 mg/kg) of the same compound?
Its bioavailability is 65%.

And the half-life ([2]; PO: 3 mg/kg)?
The half-life was 27.3 h.

And the Cmax ([2]; PO: 10 mg/kg)?
The Cmax was 0.28 µg/mL.

And the bioavailability ([2]; PO: 10 mg/kg)?
The bioavailability was 97.8%.

What about the half-life ([2]; PO: 10 mg/kg) of the same compound?
The half-life was 23.2 h.

What about the AUC ([2]; IV: 1 mg/kg) of the same compound?
Its AUC is 0.722 µg·h/mL.

And the AUC ([2]; PO: 3 mg/kg)?
Its AUC is 1.42 µg·h/mL.

What about the AUC ([2]; PO: 10 mg/kg) of the same compound?
Its AUC is 7.5 µg·h/mL.
